Results reported in article PMC3973950, “Synthesis of 5-arylidine amino-1,3,4-thiadiazol-2-[(N-substituted benzyol)]sulphonamides endowed with potent antioxidants and anticancer activity induces growth inhibition in HEK293, BT474 and NCI-H226 cells” (Medicinal Chemistry Research, 2013).

How the values were obtained:
[1] = system: BT474 (breast cancer cell line); assay: In vitro cytotoxicity by MTT assay, BT474; format: cell-based; settings: Homo sapiens, 72 h, read-out: % cytotoxicity (100 − % cell survival) of BT474 cell line; for cytotoxicity at 0.005 µM: BT-474, 0.005 μM; for cytotoxicity at 0.015 µM: BT-474, 0.015 μM; for cytotoxicity at 0.045 µM: BT-474, 0.045 μM; for cytotoxicity at 0.13 µM: BT-474, 0.13 μM; for cytotoxicity at 0.41 µM: BT-474, 0.41 μM; for cytotoxicity at 1.23 µM: BT-474, 1.23 μM; for cytotoxicity at 3.7 µM: BT-474, 3.7 μM; for cytotoxicity at 11.11 µM: BT-474, 11.11 μM; for cytotoxicity at 33.33 µM: BT-474, 33.33 μM; for cytotoxicity at 100 µM: BT-474, 100 μM
Description: (§1) The cancer cell line cultures of HEK 293 ([…]), BT474 (breast cancer cell line) and NCI-H226 (lung cancer) were obtained from Pasteur Institute of India, Coonoor, India, and were cultured in RPMI-1640 and 10 % heat-[…] New born calf serum with antibiotics [penicillin ([…]), streptomycin (100 μg/mL) and amphotericin B (25 μg/mL)]. The cells were maintained at 37 °C in a humidified atmosphere with 5 % CO2 and were subcultured twice a week.
(§2) The monolayer cell culture (100 μL) was trypsinized, and the cell count was adjusted to […] using medium containing 10 % new born calf serum. To each well of the 96-well microtitre plate, the diluted cell suspension (approximately 10,000 cells) (0.1 mL) was added and kept for 24 h in incubator at 37 °C in 5 % CO2 atmosphere for cell monolayer formation. After 24 h, when a partial monolayer was formed at the bottom of the well, the supernatant was flicked off, the monolayer was washed once, and different drugs, i.e. synthesized compounds (100 μL), were added to the cells in microtitre plates. The plates were then incubated at 37 °C for 3 days in 5 % CO2 atmosphere, and microscopic examination was carried out and observations recorded every 24 h. After 72 h, the sample solution in the wells was flicked off; MTT dye ([…]) was added to each well; plates were gently shaken and incubated for 4 h at 37 °C in 5 % CO2 incubator. The supernatant was removed and propanol (50 μL) was added; the plates were gently shaken to solubilize the formed formazan. The absorbance was measured using a microplate reader at a wavelength of 490 nm (Edmondson et al., [1988]; Prasad et al., [2005]; Chiruvella et al., [2008]; Chang et al., [2007]).

[2] = system: NCI-H226 (lung cancer cell line); assay: In vitro cytotoxicity by MTT assay, NCI-H226; format: cell-based; settings: Homo sapiens, 72 h, read-out: % Cytotoxicity (100 − % cell survival) of NCI-H226 cell line; for cytotoxicity at 0.005 µM: NCI-H226, 0.005 μM; for cytotoxicity at 0.045 µM: NCI-H226, 0.045 μM; for cytotoxicity at 0.13 µM: NCI-H226, 0.13 μM; for cytotoxicity at 0.41 µM: NCI-H226, 0.41 μM; for cytotoxicity at 1.23 µM: NCI-H226, 1.23 μM; for cytotoxicity at 3.7 µM: NCI-H226, 3.7 μM; for cytotoxicity at 11.11 µM: NCI-H226, 11.11 μM; for cytotoxicity at 33.33 µM: NCI-H226, 33.33 μM; for cytotoxicity at 100 µM: NCI-H226, 100 μM
Description: as §1, §2

[3] = In vitro cytotoxicity by MTT assay, NCI-H226; format: cell-based; settings: human, NCI-H226 lung cancer cells, 0.015 μM, read-out: % Cytotoxicity (100 − % cell survival) of NCI-H226 cell line
Description: as §1, §2

[4] = In vitro cytotoxicity by MTT assay, HEK 293; format: cell-based, human; settings: human, HEK 293 cells, read-out: % cytotoxicity (100 − % cell survival) of HEK 293 cell line
Description: as §1, §2

SMILES | cytotoxicity at 0.005 µM [1] [%] | cytotoxicity at 0.015 µM [1] [%] | cytotoxicity at 0.045 µM [1] [%] | cytotoxicity at 0.13 µM [1] [%] | cytotoxicity at 0.41 µM [1] [%] | cytotoxicity at 1.23 µM [1] [%] | cytotoxicity at 3.7 µM [1] [%] | cytotoxicity at 11.11 µM [1] [%] | cytotoxicity at 33.33 µM [1] [%] | cytotoxicity at 100 µM [1] [%] | cytotoxicity at 0.005 µM [2] [%] | cytotoxicity at 0.045 µM [2] [%] | cytotoxicity at 0.13 µM [2] [%] | cytotoxicity at 0.41 µM [2] [%] | cytotoxicity at 1.23 µM [2] [%] | cytotoxicity at 3.7 µM [2] [%] | cytotoxicity at 11.11 µM [2] [%] | cytotoxicity at 33.33 µM [2] [%] | cytotoxicity at 100 µM [2] [%] | cytotoxicity at 72 h, 0.015 µM [3] [%] | further results
Nc1nnc(S(=O)(=O)NC(=O)c2ccccc2N)s1 [Compound 4b] | 16.2 | 16.6 | 17.4 | 18 | 18.1 | 19.9 | 20.5 | 22.2 | 23.3 | 26.7 | 32.1 | 33.5 | 34 | 34.7 | 35.1 | 36 | 36.3 | 37.2 | 39.5 | 32.9 | cytotoxicity at 72 h, 0.005 µM [4]: 41.5%; cytotoxicity at 72 h, 0.015 µM [4]: 47%; cytotoxicity at 72 h, 0.045 µM [4]: 50.4%; cytotoxicity at 72 h, 0.13 µM [4]: 53.6%; cytotoxicity at 72 h, 0.41 µM [4]: 57.6%; cytotoxicity at 72 h, 1.23 µM [4]: 58.1%; cytotoxicity at 72 h, 3.7 µM [4]: 59.7%; cytotoxicity at 72 h, 11.11 µM [4]: 62.3%; cytotoxicity at 72 h, 33.33 µM [4]: 63.1%; cytotoxicity at 72 h, 100 µM [4]: 65.4%
CC(=O)Nc1ccc(S(=O)(=O)Nc2nnc(S(=O)(=O)NC(=O)c3ccc(Cl)cc3)s2)cc1 [Compound 6g] | 30.5 | 32.8 | 33.9 | 34.1 | 37.6 | 38.2 | 39.5 | 42.4 | 44.2 | 46.4 | 33.5 | 36.8 | 37.3 | 39.8 | 40.6 | 41.3 | 42.6 | 43.2 | 46 | 35 | cytotoxicity at 72 h, 0.005 µM [4]: 15.1%; cytotoxicity at 72 h, 0.015 µM [4]: 16.5%; cytotoxicity at 72 h, 0.045 µM [4]: 18%; cytotoxicity at 72 h, 0.13 µM [4]: 18.3%; cytotoxicity at 72 h, 0.41 µM [4]: 20.1%; cytotoxicity at 72 h, 1.23 µM [4]: 20.8%; cytotoxicity at 72 h, 3.7 µM [4]: 24.2%; cytotoxicity at 72 h, 11.11 µM [4]: 26.1%; cytotoxicity at 72 h, 33.33 µM [4]: 28.7%; cytotoxicity at 72 h, 100 µM [4]: 32%
Nc1nnc(S(=O)(=O)NC(=O)c2ccccc2O)s1 [Compound 4d] | 23.2 | 24.2 | 25.3 | 26.2 | 26.8 | 27.1 | 28.1 | 29.4 | 30.3 | 32.1 | 34.2 | 35.2 | 36.3 | 37.3 | 38 | 38.3 | 39.7 | 42.1 | 42.6 | 35.1 | cytotoxicity at 72 h, 0.005 µM [4]: 37.3%; cytotoxicity at 72 h, 0.015 µM [4]: 38.3%; cytotoxicity at 72 h, 0.045 µM [4]: 39.4%; cytotoxicity at 72 h, 0.13 µM [4]: 40.5%; cytotoxicity at 72 h, 0.41 µM [4]: 42.1%; cytotoxicity at 72 h, 1.23 µM [4]: 42.4%; cytotoxicity at 72 h, 3.7 µM [4]: 44.6%; cytotoxicity at 72 h, 11.11 µM [4]: 47%; cytotoxicity at 72 h, 33.33 µM [4]: 47.6%; cytotoxicity at 72 h, 100 µM [4]: 48.1%
Nc1nnc(S(=O)(=O)NC(=O)c2ccc([N+](=O)[O-])cc2)s1 [Compound 4e] | 30.9 | 31 | 31.8 | 32.3 | 33.1 | 35.7 | 37 | 37.2 | 38.9 | 40.4 | 27.3 | 28.9 | 29.6 | 29.9 | 30.6 | 31.3 | 32.2 | 33.3 | 34.6 | 28.1 | cytotoxicity at 72 h, 0.005 µM [4]: 30.6%; cytotoxicity at 72 h, 0.015 µM [4]: 31.6%; cytotoxicity at 72 h, 0.045 µM [4]: 34.1%; cytotoxicity at 72 h, 0.13 µM [4]: 34.8%; cytotoxicity at 72 h, 0.41 µM [4]: 35.4%; cytotoxicity at 72 h, 1.23 µM [4]: 37.1%; cytotoxicity at 72 h, 3.7 µM [4]: 38.9%; cytotoxicity at 72 h, 11.11 µM [4]: 39.1%; cytotoxicity at 72 h, 33.33 µM [4]: 40%; cytotoxicity at 72 h, 100 µM [4]: 40.2%
